≈ marks a conversion by molar mass, not a printed value. Like-named read-outs stand apart in the source and are kept apart here.
Test system: R. oryzae
Assay: Deferasirox susceptibility testing (MIC/MFC), R. oryzae isolates
Type: cell-based, Rhizopus oryzae
Conditions: for MFC / MIC: Rhizopus arrhizus; for MFC: read-out: MFC; for MIC: read-out: MIC
Method: Minimum inhibitory concentration (MIC) and minimum fungicidal concentration (MFC) were determined for deferasirox by the method of Espinel-Ingroff using R. oryzae spores starved for iron (Espinel-Ingroff, (2001), supra). Cidality was defined as a <4-fold difference between MIC and MFC.
We next determined the deferasirox susceptibilities of multiple clinical isolates of Mucorales (Table 3). The MIC9OS of deferasirox against Mucor, non-oryzae Rhizopus spp., and R. oryzae were 3.12 to 6.25 μg/ml. MFCs were similar to MICs, and deferasirox was cidal for 28/29 (97%) of isolates. Of note, slight growth was seen within the first twelve hours even at extremely high concentrations of deferasirox. […] Furthermore, the MICs and MFCs of deferasirox against these isolates were well below clinically achievable peak (˜38 μg/ml) and trough serum levels (˜17 μg/ml) of the drug at steady state when administered at the FDA-approved starting dose (20 mg/kg/d).

[1] = 24 h, R. oryzae pyr17 pyrG−/−, 24 h
[2] = 24 h, R. orzae type II 10206, 24 h

## O=C(O)c1ccc(-n2nc(-c3ccccc3O)nc2-c2ccccc2O)cc1 [Deferasirox, 4-[3,5-Bis(2-hydroxyphenyl)-1H-1,2,4-triazol-1-yl]-benzoic acid]
R. oryzae 99-133, 24 h
  Fungicidal?: Y (Cidal = MFC/MIC ≦ 4)
R. oryzae 99-133, 48 h
  Fungicidal?: Y (Cidal = MFC/MIC ≦ 4)
R. oryzae 99-880, 24 h
  Fungicidal?: Y (Cidal = MFC/MIC ≦ 4)
R. oryzae 99-880, 48 h
  Fungicidal?: Y (Cidal = MFC/MIC ≦ 4)
R. oryzae 99-892, 24 h
  Fungicidal?: Y (Cidal = MFC/MIC ≦ 4)
R. oryzae 99-892, 48 h
  Fungicidal?: Y (Cidal = MFC/MIC ≦ 4)
R. oryzae 729-02, 24 h
  Fungicidal?: Y (Cidal = MFC/MIC ≦ 4)
R. oryzae 729-02, 48 h
  Fungicidal?: Y (Cidal = MFC/MIC ≦ 4)
R. oryzae HUMC 02, 24 h
  Fungicidal?: Y (Cidal = MFC/MIC ≦ 4)
R. oryzae HUMC 02, 48 h
  Fungicidal?: Y (Cidal = MFC/MIC ≦ 4)
R. oryzae MIC90/MFC90, 24 h
  Fungicidal?: Y (Cidal = MFC/MIC ≦ 4)
  MFC90: 12.5 µg/mL (≈ 33.5 µM)
R. oryzae MIC90/MFC90, 48 h
  Fungicidal?: Y (Cidal = MFC/MIC ≦ 4)
  MFC90: 6.25 µg/mL (≈ 16.7 µM)
R. oryzae pyr17 pyrG−/−, 24 h
  Fungicidal?: Y (Cidal = MFC/MIC ≦ 4)
R. oryzae pyr17 pyrG−/−, 48 h
  Fungicidal?: Y (Cidal = MFC/MIC ≦ 4)
R. oryzae type 1 NRRL13440, 24 h
  Fungicidal?: N (Cidal = MFC/MIC ≦ 4)
R. oryzae type 1 NRRL13440, 48 h
  Fungicidal?: N (Cidal = MFC/MIC ≦ 4)
R. oryzae type I NRRL 6059, 24 h
  Fungicidal?: Y (Cidal = MFC/MIC ≦ 4)
R. oryzae type I NRRL 6059, 48 h
  Fungicidal?: Y (Cidal = MFC/MIC ≦ 4)
R. oryzae type I NRRL 10206, 24 h
  Fungicidal?: Y (Cidal = MFC/MIC ≦ 4)
R. oryzae type I NRRL 10206, 48 h
  Fungicidal?: Y (Cidal = MFC/MIC ≦ 4)
R. oryzae type I NRRL11823, 24 h
  Fungicidal?: Y (Cidal = MFC/MIC ≦ 4)
R. oryzae type I NRRL11823, 48 h
  Fungicidal?: Y (Cidal = MFC/MIC ≦ 4)
R. oryzae type I NRRL13142, 24 h
  Fungicidal?: Y (Cidal = MFC/MIC ≦ 4)
R. oryzae type I NRRL13142, 48 h
  Fungicidal?: Y (Cidal = MFC/MIC ≦ 4)
R. oryzae type I NRRL13533, 24 h
  Fungicidal?: Y (Cidal = MFC/MIC ≦ 4)
R. oryzae type I NRRL13533, 48 h
  Fungicidal?: Y (Cidal = MFC/MIC ≦ 4)
R. oryzae type I NRRL 21251, 24 h
  Fungicidal?: Y (Cidal = MFC/MIC ≦ 4)
R. oryzae type I NRRL 21251, 48 h
  Fungicidal?: Y (Cidal = MFC/MIC ≦ 4)
R. oryzae type I NRRL21396, 24 h
  Fungicidal?: Y (Cidal = MFC/MIC ≦ 4)
R. oryzae type I NRRL21396, 48 h
  Fungicidal?: Y (Cidal = MFC/MIC ≦ 4)
R. oryzae type I NRRL21409, 24 h
  Fungicidal?: Y (Cidal = MFC/MIC ≦ 4)
R. oryzae type I NRRL21409, 48 h
  Fungicidal?: Y (Cidal = MFC/MIC ≦ 4)
R. oryzae type II NRRL 18148, 24 h
  Fungicidal?: Y (Cidal = MFC/MIC ≦ 4)
R. oryzae type II NRRL 18148, 48 h
  Fungicidal?: Y (Cidal = MFC/MIC ≦ 4)
R. oryzae type II NRRL 21446, 24 h
  Fungicidal?: Y (Cidal = MFC/MIC ≦ 4)
R. oryzae type II NRRL 21446, 48 h
  Fungicidal?: Y (Cidal = MFC/MIC ≦ 4)
R. oryzae type II NRRL 21447, 24 h
  Fungicidal?: Y (Cidal = MFC/MIC ≦ 4)
R. oryzae type II NRRL 21447, 48 h
  Fungicidal?: Y (Cidal = MFC/MIC ≦ 4)
R. oryzae type II NRRL 21477, 24 h
  Fungicidal?: Y (Cidal = MFC/MIC ≦ 4)
R. oryzae type II NRRL 21477, 48 h
  Fungicidal?: Y (Cidal = MFC/MIC ≦ 4)
R. oryzae type II NRRL 21628, 24 h
  Fungicidal?: Y (Cidal = MFC/MIC ≦ 4)
R. oryzae type II NRRL 21628, 48 h
  Fungicidal?: Y (Cidal = MFC/MIC ≦ 4)
R. oryzae type II NRRL 21789, 24 h
  Fungicidal?: Y (Cidal = MFC/MIC ≦ 4)
R. oryzae type II NRRL 21789, 48 h
  Fungicidal?: Y (Cidal = MFC/MIC ≦ 4)
R. orzae type II 10206, 24 h
  Fungicidal?: Y (Cidal = MFC/MIC ≦ 4)
R. orzae type II 10206, 48 h
  Fungicidal?: Y (Cidal = MFC/MIC ≦ 4)
24 h, R. oryzae 99-133, 24 h
  MFC: 6.25 µg/mL (≈ 16.7 µM)
  MIC: 6.25 µg/mL (≈ 16.7 µM)
24 h, R. oryzae 99-880, 24 h
  MFC: 3.12 µg/mL (≈ 8.36 µM)
  MIC: 3.12 µg/mL (≈ 8.36 µM)
24 h, R. oryzae 99-892, 24 h
  MFC: 1.56 µg/mL (≈ 4.18 µM)
  MIC: 1.56 µg/mL (≈ 4.18 µM)
24 h, R. oryzae 729-02, 24 h
  MFC: 12.5 µg/mL (≈ 33.5 µM)
  MIC: 12.5 µg/mL (≈ 33.5 µM)
24 h, R. oryzae HUMC 02, 24 h
  MFC: 12.5 µg/mL (≈ 33.5 µM)
  MIC: 12.5 µg/mL (≈ 33.5 µM)
[1]
  MFC: 0.78 µg/mL (≈ 2.09 µM)
  MIC: 0.78 µg/mL (≈ 2.09 µM)
[2]
  MFC: 3.12 µg/mL (≈ 8.36 µM)
  MIC: 3.12 µg/mL (≈ 8.36 µM)
48 h, R. oryzae 99-133, 48 h
  MFC: 6.25 µg/mL (≈ 16.7 µM)
  MIC: 1.56 µg/mL (≈ 4.18 µM)
48 h, R. oryzae 99-880, 48 h
  MFC: 3.12 µg/mL (≈ 8.36 µM)
  MIC: 3.12 µg/mL (≈ 8.36 µM)
48 h, R. oryzae 99-892, 48 h
  MFC: 1.56 µg/mL (≈ 4.18 µM)
  MIC: 1.56 µg/mL (≈ 4.18 µM)

From US20100129434A1, “COMPOSITIONS AND METHODS FOR THE TREATMENT OF MUCORMYCOSIS AND OTHER FUNGAL DISEASES” (priority 2006, published 2010)
